Source: patent publication US5041567A, “Antibacterial monic acid derivatives” (Beecham Group plc, priority 1982, dated 1991)
Converted amounts (≈) assume the structure as drawn. Like-named read-outs stand apart in the source and are kept apart here.

Experiments:
[1] = system: M. suipneumoniae J2206/183^b; assay: MIC against mycoplasma in vitro; type: cell-based; conditions: Mesomycoplasma hyopneumoniae, 144 h
Strep. dysgalactiae SPD1 = assay: MIC against veterinary bacteria in vitro; conditions: Streptococcus dysgalactiae, SPD1, 18 h
Description: (§1) The activity of the compounds of the Examples against various veterinarily important bacteria, was assayed in vitro using two-fold serial dilutions in Diagnostic Sensitivity Test Agar inoculated with 10^4 organisms.

K. aerogenes A = assay: MIC against human bacteria in vitro; type: cell-based; conditions: Klebsiella aerogenes
M. hyorhinis ATCC 23234 = assay: MIC against mycoplasma in vitro; type: cell-based; conditions: Mesomycoplasma hyorhinis, ATCC23234, 144 h
[2] = system: Erysipelothrix rhusiopathiae NCTC 8163; assay: MIC against veterinary bacteria in vitro; conditions: Erysipelothrix rhusiopathiae, NCTC8163, 18 h
Description: as §1

Strep. uberis SPU1 = assay: MIC against veterinary bacteria in vitro; conditions: Streptococcus uberis, SPU1, 18 h
Description: as §1

Bacillus subtilis 6633 = assay: MIC against human bacteria in vitro; type: cell-based; conditions: Bacillus subtilis 6633; 5% chocolated horse blood agar, 18 hours; read-out: MIC
Bord. bronchiseptica B08 = assay: MIC against veterinary bacteria in vitro; conditions: Bordetella bronchiseptica, B08, 18 h
Description: as §1

E. coli ESS = assay: MIC against human bacteria in vitro; type: cell-based; conditions: Escherichia coli
[3] = system: Pasteurella multocida 1633; assay: MIC against human bacteria in vitro; type: cell-based
[4] = system: Haemophilus influenzae Q1; assay: MIC against human bacteria in vitro; type: cell-based; conditions: Haemophilus influenzae Q1; 5% chocolated horse blood agar, 18 hours; read-out: MIC
[5] = system: M. hyosynoviae ATCC 25591; assay: MIC against mycoplasma in vitro; type: cell-based; conditions: 144 h; M. hyosynoviae ATCC 25591; 6 days, 37° C.; read-out: MIC
Staph. aureus Oxford = assay: MIC against veterinary bacteria in vitro; conditions: Staphylococcus aureus, 18 h
Description: as §1

[6] = system: Corynebacterium pyogenes CY1; assay: MIC against veterinary bacteria in vitro; conditions: CY1, 18 h
Description: as §1

M. suipneumoniae LABER = assay: MIC against mycoplasma in vitro; type: cell-based; conditions: Mesomycoplasma hyopneumoniae, 144 h
Strep. faecalis I = assay: MIC against human bacteria in vitro; type: cell-based; conditions: Enterococcus faecalis
M. bovis NCTC 10131 = assay: microbe, parasite or virus in culture; type: cell-based; conditions: NCTC10131, 144 h
S. typhimurium S18 = assay: MIC against veterinary bacteria in vitro; conditions: Salmonella enterica, TYPHIMURIUM, 18 h
Description: as §1

M. suipneumoniae HK(2) = assay: MIC against mycoplasma in vitro; type: cell-based; conditions: Mesomycoplasma hyopneumoniae, 144 h
Bord. bronchiseptica B09 = assay: MIC against veterinary bacteria in vitro; conditions: Bordetella bronchiseptica, B09, 18 h
Description: as §1

M. pneumoniae ATCC 15492 = assay: MIC against mycoplasma in vitro; type: cell-based; conditions: Mycoplasmoides pneumoniae, ATCC15492, 144 h; M. pneumoniae ATCC 15492; 6 days, 37° C.; read-out: MIC
[7] = system: Staph. aureus B4 (pen. resistant); assay: MIC against veterinary bacteria in vitro; conditions: Staphylococcus aureus, 18 h
Description: as §1

Strep. spp. 64/848-C = assay: MIC against human bacteria in vitro; type: cell-based; conditions: 18 h
[8] = K. aerogenes A, 5% chocolated horse blood agar, 18 hours, read-out: MIC
[9] = E. coli ESS, 5% chocolated horse blood agar, 18 hours, read-out: MIC
[10] = Pasteurella multocida 1633, 5% chocolated horse blood agar, 18 hours, read-out: MIC
[11] = Strep. faecalis I, 5% chocolated horse blood agar, 18 hours, read-out: MIC
[12] = M. suipneumoniae J2206/183^b, 6 days, 37° C., read-out: MIC
[13] = M. hyorhinis ATCC 23234, 6 days, 37° C., read-out: MIC
[14] = M. suipneumoniae LABER, 6 days, 37° C., read-out: MIC
[15] = M. suipneumoniae HK(2), 6 days, 37° C., read-out: MIC

`C/C(=C\c1ncc(-c2cccc([N+](=O)[O-])c2)o1)C[C@@H]1OC[C@H](C[C@@H]2O[C@H]2[C@@H](C)[C@H](C)O)[C@@H](O)[C@H]1O` [Example 6, 5-m-nitrophenyl-2-(1-normon-2-yl)oxazole A] showed an MIC [1] of 0.05 µg/mL (≈ 0.102 µM), an MIC (Strep. dysgalactiae SPD1) of 0.625 µg/mL (≈ 1.28 µM) and an MIC (K. aerogenes A; [8]) of over 128 µg/mL. For the same compound, the MIC (M. hyorhinis ATCC 23234) was 0.025 µg/mL (≈ 0.0512 µM), the MIC [2] was over 80 µg/mL and the MIC (Strep. uberis SPU1) was 0.07 µg/mL (≈ 0.143 µM). For the same compound, the MIC (Bacillus subtilis 6633) was 2 µg/mL (≈ 4.09 µM), the MIC (Bord. bronchiseptica B08) was 80 µg/mL (≈ 164 µM) and the MIC (E. coli ESS; [9]) was 16 µg/mL (≈ 32.8 µM). For the same compound, the MIC [3, 10] was 16 µg/mL (≈ 32.8 µM), the MIC [4] was 2 µg/mL (≈ 4.09 µM) and the MIC [5] was 0.5 µg/mL (≈ 1.02 µM). For the same compound, the MIC (Staph. aureus Oxford) was 1.25 µg/mL (≈ 2.56 µM), the MIC [6] was over 80 µg/mL and the MIC (M. suipneumoniae LABER) was 0.05 µg/mL (≈ 0.102 µM). It also gave an MIC (Strep. faecalis I; [11]) of over 128 µg/mL, an MIC (M. bovis NCTC 10131) of 0.025 µg/mL (≈ 0.0512 µM) and an MIC (S. typhimurium S18) of over 80 µg/mL. The MIC (M. suipneumoniae HK(2)) was 0.05 µg/mL (≈ 0.102 µM), the MIC (Bord. bronchiseptica B09) was 20 µg/mL (≈ 40.9 µM) and the MIC (M. pneumoniae ATCC 15492) was 1 µg/mL (≈ 2.05 µM).
`COC(=O)c1ccc(-c2cnc(/C=C(\C)C[C@@H]3OC[C@H](C[C@@H]4O[C@H]4[C@@H](C)[C@H](C)O)[C@@H](O)[C@H]3O)o2)cc1` [Example 16, 5-p-Methoxycarbonylphenyl-2-(1-normon-2-yl) oxazole A] gave an MIC [1, 12] of 0.5 µg/mL (≈ 0.997 µM), an MIC (Strep. dysgalactiae SPD1) of 1.25 µg/mL (≈ 2.49 µM) and an MIC (K. aerogenes A; [8]) of over 64 µg/mL. It also gave an MIC (M. hyorhinis ATCC 23234; [13]) of 0.25 µg/mL (≈ 0.498 µM), an MIC [2] of 80 µg/mL (≈ 159 µM) and an MIC (Strep. uberis SPU1) of 0.312 µg/mL (≈ 0.622 µM). For the same compound, the MIC [7] was 5 µg/mL (≈ 9.97 µM), the MIC (Bacillus subtilis 6633) was 1 µg/mL (≈ 1.99 µM) and the MIC (Bord. bronchiseptica B08) was over 80 µg/mL. The MIC (E. coli ESS; [9]) was 32 µg/mL (≈ 63.8 µM), the MIC [3, 10] was 16 µg/mL (≈ 31.9 µM) and the MIC [4] was 2 µg/mL (≈ 3.99 µM). For the same compound, the MIC [5] was 0.5 µg/mL (≈ 0.997 µM), the MIC (Staph. aureus Oxford) was 1.25 µg/mL (≈ 2.49 µM) and the MIC [6] was over 80 µg/mL. It also gave an MIC (M. suipneumoniae LABER; [14]) of 0.25 µg/mL (≈ 0.498 µM), an MIC (Strep. faecalis I; [11]) of over 64 µg/mL and an MIC (M. bovis NCTC 10131) of 0.05 µg/mL (≈ 0.0997 µM). For the same compound, the MIC (S. typhimurium S18) was over 80 µg/mL, the MIC (M. suipneumoniae HK(2); [15]) was 0.5 µg/mL (≈ 0.997 µM) and the MIC (Bord. bronchiseptica B09) was 40 µg/mL (≈ 79.7 µM). For the same compound, the MIC (M. pneumoniae ATCC 15492) was 1 µg/mL (≈ 1.99 µM).
Compound `C/C(=C/c1ncc(-c2ccccc2)o1)C[C@@H]1OC[C@H](C[C@@H]2O[C@H]2[C@@H](C)[C@H](C)O)[C@@H](O)[C@H]1O` [Example 2, 2-{3-[5-(2,3-epoxy-5-hydroxy-4-methylhexyl)-3,4-dihydroxytetrahydropyran-2-yl]-2-methylprop-1(Z)-enyl}-5-phenyloxazole] has an MIC [1, 12] of 10 µg/mL (≈ 22.5 µM), an MIC (Strep. dysgalactiae SPD1) of 10 µg/mL (≈ 22.5 µM) and an MIC (K. aerogenes A; 18 h) of over 50 µg/mL. The MIC (M. hyorhinis ATCC 23234; [13]) was 10 µg/mL (≈ 22.5 µM), the MIC [2] was over 80 µg/mL and the MIC (Strep. uberis SPU1) was 5 µg/mL (≈ 11.3 µM). The MIC [7] was 20 µg/mL (≈ 45.1 µM), the MIC (Bacillus subtilis 6633) was 25 µg/mL (≈ 56.4 µM) and the MIC (Bord. bronchiseptica B08) was over 80 µg/mL. It also gave an MIC (E. coli ESS; [9]) of 25 µg/mL (≈ 56.4 µM), an MIC (Strep. spp. 64/848-C) of over 50 µg/mL and an MIC ([3]; Pasteurella multocida, 1633, 18 h) of over 50 µg/mL. It also gave an MIC [4] of 12.5 µg/mL (≈ 28.2 µM), an MIC [5] of 5 µg/mL (≈ 11.3 µM) and an MIC (Staph. aureus Oxford) of 20 µg/mL (≈ 45.1 µM). For the same compound, the MIC [6] was over 80 µg/mL, the MIC (M. suipneumoniae LABER; [14]) was 10 µg/mL (≈ 22.5 µM) and the MIC (Strep. faecalis I; 18 h) was over 50 µg/mL. The MIC (M. bovis NCTC 10131) was 0.25 µg/mL (≈ 0.564 µM), the MIC (S. typhimurium S18) was over 80 µg/mL and the MIC (M. suipneumoniae HK(2); [15]) was 10 µg/mL (≈ 22.5 µM). For the same compound, the MIC (Bord. bronchiseptica B09) was over 80 µg/mL.
`C/C(=C\c1nc(C)c(C)o1)C[C@@H]1OC[C@H](C[C@@H]2O[C@H]2[C@@H](C)[C@H](C)O)[C@@H](O)[C@H]1O` [Example 39, 4,5-Dimethyl-2-(1-normon-2-yl)oxazole A] was tested, and the MIC [1, 12] was over 10 µg/mL, the MIC (Strep. dysgalactiae SPD1) was over 80 µg/mL and the MIC (K. aerogenes A; [8]) was over 100 µg/mL. The MIC (M. hyorhinis ATCC 23234; [13]) was over 10 µg/mL, the MIC [2] was over 80 µg/mL and the MIC (Strep. uberis SPU1) was over 80 µg/mL. The MIC [7] was over 80 µg/mL, the MIC (Bacillus subtilis 6633) was over 100 µg/mL and the MIC (Bord. bronchiseptica B08) was over 80 µg/mL. The MIC (E. coli ESS; 18 h) was over 100 µg/mL, the MIC [3, 10] was 50 µg/mL (≈ 126 µM) and the MIC [4] was 5 µg/mL (≈ 12.6 µM). It also gave an MIC [5] of over 10 µg/mL, an MIC (Staph. aureus Oxford) of over 80 µg/mL and an MIC [6] of over 80 µg/mL. For the same compound, the MIC (M. suipneumoniae LABER; [14]) was over 10 µg/mL, the MIC (Strep. faecalis I; [11]) was over 100 µg/mL and the MIC (M. bovis NCTC 10131) was 5 µg/mL (≈ 12.6 µM). The MIC (S. typhimurium S18) was over 80 µg/mL, the MIC (M. suipneumoniae HK(2); [15]) was over 10 µg/mL and the MIC (Bord. bronchiseptica B09) was over 80 µg/mL. For the same compound, the MIC (M. pneumoniae ATCC 15492) was over 10 µg/mL.
`C/C(=C\c1nc(C)c(-c2ccccc2)o1)C[C@@H]1OC[C@H](C[C@@H]2O[C@H]2[C@@H](C)[C@H](C)O)[C@@H](O)[C@H]1O` [Example 40, 4-Methyl-2-(1-normon-2-yl)-5-phenyloxazole A] was tested, and the MIC [1, 12] was over 10 µg/mL, the MIC (Strep. dysgalactiae SPD1) was over 80 µg/mL and the MIC (K. aerogenes A; [8]) was over 100 µg/mL. It also gave an MIC (M. hyorhinis ATCC 23234; [13]) of over 10 µg/mL, an MIC [2] of over 80 µg/mL and an MIC (Strep. uberis SPU1) of 40 µg/mL (≈ 87.4 µM). For the same compound, the MIC [7] was 80 µg/mL (≈ 175 µM), the MIC (Bacillus subtilis 6633) was 100 µg/mL (≈ 219 µM) and the MIC (Bord. bronchiseptica B08) was over 80 µg/mL. The MIC (E. coli ESS; 18 h) was 100 µg/mL (≈ 219 µM), the MIC [3, 10] was 100 µg/mL (≈ 219 µM) and the MIC [4] was 50 µg/mL (≈ 109 µM). For the same compound, the MIC [5] was over 10 µg/mL, the MIC (Staph. aureus Oxford) was 80 µg/mL (≈ 175 µM) and the MIC [6] was 80 µg/mL (≈ 175 µM). The MIC (M. suipneumoniae LABER; [14]) was over 10 µg/mL, the MIC (Strep. faecalis I; [11]) was over 100 µg/mL and the MIC (M. bovis NCTC 10131) was 5 µg/mL (≈ 10.9 µM). For the same compound, the MIC (S. typhimurium S18) was over 80 µg/mL, the MIC (M. suipneumoniae HK(2); [15]) was over 10 µg/mL and the MIC (Bord. bronchiseptica B09) was over 80 µg/mL. The MIC (M. pneumoniae ATCC 15492) was over 10 µg/mL.
